Series [1] relates to TGF-β2 signaling pathway. As to the kind of experiment: Western blotting for α-SMA and fibronectin in TGF-β2-treated fibroblasts. The format is cell-based, rabbit. Particulars: incubated 48 to 72 hours; for band intensity for fibronectin and α-SMA compared with samples not treated with the inhibitors: more pronounced with higher concentration; for fibronectin and α-SMA protein expression induced by TGF-B2: rabbit subconjunctival fibroblasts, 2 ng/ml TGF-β2. As to the method:
(§1) Sample fibroblasts were obtained from New Zealand white rabbit eyes. The fibroblasts were derived from the subconjunctival tissues isolated from the eyes of the subjects. The third to fifth passages of cells were maintained in 25 cm^2 flasks using 3 ml of medium composed of Eagle's minimal essential medium, 10% fetal bovine serum, 5% calf serum, essential and nonessential aminoacids, and antibiotics. When the cells reached confluence, they were trypsinized and passaged.
(§2) The fibroblast cultures in 6-well plates were pre-treated with 2 ml of medium including ALK-5 inhibitors at various concentrations, 0.03, 0.1, […], 1.0, 3.0, and 10.0 μM, for one hour, and were additionally treated with
(§3) 2 ng/ml of TGF-β2 (R&D Systems, Minneapolis, Minn.) for up to 72 hours.
To test for fibronectin and α-SMA protein expression after the treatment with the respective inhibitors, rabbit subconjunctival fibroblasts, as prepared in samples 1-16, were incubated for 48 to 72 hours. […] Band intensity for both proteins was reduced in A-83-01 and SB-431542 treated samples compared with the bands of those samples not treated with the inhibitors. The reduction in protein levels is more pronounced with a higher concentration of the inhibitors. The blots were also probed for β-actin to control for equal protein loading.
Proteins in the cell lysates (20 μg/lane) were resolved on a 10% sodium dodecyl sulfate (SDS)-polyacrylamide gel. The proteins were transferred to nitrocellulose. After blocking with 1% bovine serum albumin, the membranes were probed with monoclonal mouse anti-α-SMA (1:9,000) followed by HRP-conjugated goat anti-mouse IgG (1:150,000; Jackson), or monoclonal mouse anti-fibronectin (1:1,000) followed by HRP-conjugated goat anti-mouse IgG (1:10,000). Signals were detected by enhanced chemiluminescense.
(In general: A western blot detects proteins with antibodies after separation by electrophoresis.)

Series [2] concerns cultured rabbit subconjunctival fibroblasts. Description: TGF-β2 activity related to wound healing in cultured fibroblasts (overall conclusion). The format is cell-based. Particulars: for cell toxicity: cell cultures prepared with either inhibitor; for TGF-β2 activity related to wound healing: cultured rabbit subconjunctival fibroblasts. The method, then:
as §1, §2, §3
Thus, these inhibitors may be used as ocular anti-scarring agents, especially for glaucoma filtration surgery.

Series [3] deals with TGF-β2-induced proteins.
Description: (§4) In another example, subconjunctival fibroblasts were cultured on 8-well chamber slides. The samples were prepared as in samples 5-6 and 13-16 and incubated for 72 hours. After inhibitor treatment, the fibroblast cultures were fixed with 4% paraformaldehyde or with ice-cold methanol for Alexa Fluor or FITC staining, respectively. After permeabilization, the cells cultures were incubated with polyclonal goat anti-CTGF (1:50, Santa Cruz) followed by Alexa Fluor donkey anti-goat IgG (10 μg/mL, Invitrogen), monoclonal mouse anti-fibronectin (10 μg/mL, Invitrogen) or monoclonal mouse anti-α-SMA (1:400, Sigma) followed by FITC goat anti-mouse IgG (1:100, Jackson ImmunoResearch). The cell cultures were mounted with aqueous mounting media with DAPI and viewed by fluoresence microscopy.
Nuclei were stained with DAPI (blue).
The subject of series [4] is rabbit fibroblasts. As to the kind of experiment: Fibroblast morphology by phase contrast microscopy. Particulars: 5 ng/ml TGF-β2; for TGF-β2-induced morphologic change (myofibroblast-like appearance): sample 6 (A-83-01 3.0 μM), sample 14 (SB-431542 10.0 μM).
Description: In another example, rabbit fibroblasts were prepared as in samples 6, 14, 15, and 16 except that 5 ng/ml of TGF-β2 was added to the samples instead of 2 ng/ml.
Series [5] has as its system TGF-β2-induced proteins. Description: Immunocytofluorescence microscopy for CTGF, fibronectin and α-SMA. Particulars: for staining intensity of TGF-β2-induced proteins (CTGF, α-SMA, fibronectin): samples 5-6 (A-83-01 1.0, 3.0 μM) and 13-14 (SB-431542 3.0, 10.0 μM), 2 ng/ml TGF-β2, 72 hours.
Description: as §4
Nuclei were stained with DAPI (blue).

Read-outs that look alike come from different tables or passages of the source.

On to `NC(=O)c1ccc(-c2nc(-c3ccc4c(c3)OCO4)c(-c3ccccn3)[nH]2)cc1` [SB-431542], for which, in series [1], the “band intensity for fibronectin and α-SMA compared with samples not treated with the inhibitors” value is recorded as “reduced”; the “fibronectin and α-SMA protein expression induced by TGF-B2” value was “effectively inhibited”. In series [2], the cell toxicity entry was “No obvious cell toxicity” and the “TGF-β2 activity related to wound healing” value was “effectively block”. The cell death result in series [3] was “No obvious cell death”. The “TGF-β2-induced morphologic change (myofibroblast-like appearance)” value in series [4] was “seemed to be averted”. The “staining intensity of TGF-β2-induced proteins (CTGF, α-SMA, fibronectin)” value in series [5] was “greatly reduced”.
With `Cc1cccc(-c2nn(C(=S)Nc3ccccc3)cc2-c2ccnc3ccccc23)n1` [A-83-01], in series [1], the “band intensity for fibronectin and α-SMA compared with samples not treated with the inhibitors” value is “reduced”; the “fibronectin and α-SMA protein expression induced by TGF-B2” value is on record as “effectively inhibited”. Also, in series [2], the cell toxicity result is recorded as “No obvious cell toxicity” and the “TGF-β2 activity related to wound healing” value is “effectively block”. In series [4] (sample 6 (3.0 μM), sample 14 (10.0 μM)), the cell death entry was “No obvious cell death”. Moreover, the “TGF-β2-induced morphologic change (myofibroblast-like appearance)” value in series [4] is listed as “seemed to be averted”. The “staining intensity of TGF-β2-induced proteins (CTGF, α-SMA, fibronectin)” value in series [5] is “greatly reduced”. Moreover, in series [5] (samples 5-6 and 13-14, 72 hours), the cell death entry is “No obvious cell death”.

The values are drawn from US20100087486A1, “METHODS FOR USING TGF-B RECEPTOR INHIBITORS OR ACTIVIN-LIKE KINASE (ALK) 5 INHIBITORS A-83-01 AND SB-431542 TO TREAT EYE DISEASE AND WOUND HEALING CONDITIONS” (priority 2008, published 2010).
